Results: patent publication US20260007133A1, “HERBICIDAL COMPOSITION COMPRISING AZINE COMPOUNDS” (BASF SE, priority 2022, published 2026)
Like-named read-outs stand apart in the source and are kept apart here.

Assays:
Type in all cases: in vivo
Euphorbia heterophylla = assay: Greenhouse pre-emergence (PRE) herbicidal test on EPHHL; conditions: Euphorbia heterophylla, pre-emergence
Method in brief: (§1)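 Each species is sown separately into loamy sand containing roughly 3.0% humus and treated before emergence. Pots are watered and covered until roots establish, then held at 10-25° C or 20-35° C. Injury is rated on a 0 to 100 scale 20 days post-treatment.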

Geranium pusillum = assay: Greenhouse pre-emergence (PRE) herbicidal test on GERPU; conditions: Geranium pusillum, pre-emergence, GERPU PRE
Method in brief: (§2)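 PRE spray directly after sowing, fine nozzles; actives suspended/emulsified in water, components formulated as 5% w/w EC in spray liquor. Substrate loamy sand ~3.0% humus. Hooded until rooting; 10-25° C. / 20-35° C. per species. Score 0–100, 20 DAT.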

Lolium multiflorum = assay: Greenhouse pre-emergence (PRE) herbicidal test on LOLMU; conditions: Lolium multiflorum, pre-emergence; for pest or weed control at 2 g/ha: I-3 solo 2 gai/ha
Method in brief: as §1

Setaria viridis = assay: Greenhouse pre-emergence (PRE) herbicidal test on SETVI; conditions: Setaria viridis, pre-emergence, 480 h, 20 DAT
Method in brief: as §2

Amaranthus retroflexus = assay: Greenhouse post-emergence (POST) herbicidal test on AMARE; conditions: Amaranthus retroflexus, post-emergence
Method in brief: (§3)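 Sow or transplant seedlings into loamy-sand pots; grow to 3–15 cm; spray aqueous suspension/emulsion of actives from a 5% by weight emulsion concentrate; hold at 10-25° C or 20-35° C depending on species; score injury 0–100 at 20 DAT.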

Echinochloa crus-galli = assay: Greenhouse post-emergence (POST) herbicidal test on ECHCG
Method in brief: as §3

Structure (SMILES): COc1c(Cl)cc(F)c(F)c1Nc1nc(N)nc(C(C)(C)F)n1 [Compound I-3]
- pest or weed control at 2 g/ha (Euphorbia heterophylla; 432 h, PRE, EPHHL, I-3 solo 2 gai/ha, 18 DAT): 15%
- pest or weed control at 8 g/ha (Euphorbia heterophylla; 432 h, PRE, EPHHL, I-3 solo 8 gai/ha, 18 DAT): 75%
- inhibition at 2 g/ha (Euphorbia heterophylla; 480 h, EPHHL PRE, 20 DAT, use rate 2 gai/ha, read-out: % activity): 0%
- inhibition at 8 g/ha (Euphorbia heterophylla; 480 h, EPHHL PRE, 20 DAT, use rate 8 gai/ha, read-out: % activity): 50%
- pest or weed control at 8 g/ha (Euphorbia heterophylla; 480 h, PRE, 8 gai/ha, 20 DAT): 50%
- inhibition at 2 g/ha (Euphorbia heterophylla; 480 h, PRE, EPHHL, 2 gai/ha, 20 DAT, read-out: % activity solo application): 5%
- inhibition at 8 g/ha (Euphorbia heterophylla; 480 h, PRE, EPHHL, 8 gai/ha, 20 DAT, read-out: % activity solo application): 50%
- pest or weed control at 8 g/ha (Euphorbia heterophylla; 480 h, PRE, EPHHL, I-3 solo 8 gai/ha, 20 DAT): 20%
- inhibition at 2 g/ha (Euphorbia heterophylla; 480 h, PRE, EPHHL, use rate 2 gai/ha, 20 DAT, read-out: solo application % activity): 10%
- inhibition at 8 g/ha (Euphorbia heterophylla; 480 h, PRE, EPHHL, use rate 8 gai/ha, 20 DAT, read-out: solo application % activity): 50%
- inhibition at 8 g/ha (Euphorbia heterophylla; EPHHL PRE, use rate 8 gai/ha, read-out: % activity): 55%
- inhibition at 2 g/ha (Euphorbia heterophylla; PRE, EPPHL, use rate 2 gai/ha, read-out: % activity): 45%
- inhibition at 8 g/ha (Euphorbia heterophylla; PRE, EPPHL, use rate 8 gai/ha, read-out: % activity): 80%
- inhibition at 2 g/ha (Geranium pusillum; use rate 2 gai/ha): 0%
- inhibition at 8 g/ha (Geranium pusillum; use rate 8 gai/ha): 15%
- inhibition at 2 g/ha (Lolium multiflorum; 432 h, PRE, LOLMU, 2 gai/ha, 18 DAT, read-out: % activity solo application): 10%
- inhibition at 8 g/ha (Lolium multiflorum; 432 h, PRE, LOLMU, 8 gai/ha, 18 DAT, read-out: % activity solo application): 70%
- pest or weed control at 2 g/ha (Lolium multiflorum; 432 h, PRE, LOLMU, 18 DAT, read-out: % activity): 10%
- pest or weed control at 8 g/ha (Lolium multiflorum; 432 h, PRE, LOLMU, I-3 solo 8 gai/ha, 18 DAT): 70%
- inhibition at 8 g/ha (Lolium multiflorum; 480 h, LOLMU PRE, 20 DAT, use rate 8 gai/ha, read-out: % activity): 90%
- pest or weed control at 8 g/ha (Lolium multiflorum; 480 h, PRE, 8 gai/ha, 20 DAT): 90%
- inhibition at 8 g/ha (Lolium multiflorum; 480 h, PRE, LOLMU, 8 gai/ha, 20 DAT, read-out: % activity solo application): 95%
- pest or weed control at 2 g/ha (Lolium multiflorum; 480 h, PRE, LOLMU, 20 DAT, read-out: % activity): 25%
- inhibition at 2 g/ha (Lolium multiflorum; 480 h, PRE, LOLMU, use rate 2 gai/ha, 20 DAT, read-out: solo application % activity): 50%
- inhibition at 4 g/ha (Lolium multiflorum; 480 h, PRE, LOLMU, use rate 4 gai/ha, 20 DAT): 80%
- inhibition at 2 g/ha (Lolium multiflorum; 480 h, PRE, use rate 2 gai/ha, 20 DAT, read-out: % activity): 20%
- inhibition at 2 g/ha (Lolium multiflorum; PRE, LOLMU, use rate 2 gai/ha, read-out: % activity): 40%
- pest or weed control at 2 g/ha (Setaria viridis; PRE, 2 gai/ha): 60%
- inhibition at 2 g/ha (Setaria viridis; PRE, SETVI, 2 gai/ha, read-out: % activity solo application): 50%
- inhibition at 2 g/ha (Setaria viridis; PRE, SETVI, use rate 2 gai/ha, read-out: solo application % activity): 20%
- inhibition at 2 g/ha (Setaria viridis; SETVI PRE, use rate 2 gai/ha, read-out: % activity): 60%
- pest or weed control at 8 g/ha (Amaranthus retroflexus; 432 h, POST, AMARE, I-3 solo 8 gai/ha, 18 DAT): 90%
- inhibition at 2 g/ha (Amaranthus retroflexus; 480 h, POST, AMARE, 2 gai/ha, 20 DAT, read-out: % activity solo application): 45%
- inhibition at 4 g/ha (Amaranthus retroflexus; 480 h, POST, AMARE, use rate 4 gai/ha, 20 DAT): 50%
- inhibition at 2 g/ha (Amaranthus retroflexus; AMARE POST, use rate 2 gai/ha, read-out: % activity): 60%
- inhibition at 8 g/ha (Amaranthus retroflexus; AMARE POST, use rate 8 gai/ha, read-out: % activity): 75%
- inhibition at 2 g/ha (Amaranthus retroflexus; POST, AMARE, use rate 2 gai/ha, read-out: % activity): 70%
- % activity (Echinochloa crus-galli; ECHCG POST, use rate 2 gai/ha): 25%
- % activity (Echinochloa crus-galli; ECHCG POST, use rate 8 gai/ha): 40%
- inhibition at 2 g/ha (Echinochloa crus-galli; Echinochloa crus-galli, post-emergence, 432 h, POST, ECHCG, 2 gai/ha, 18 DAT, read-out: % activity solo application): 0%
- pest or weed control at 2 g/ha (Echinochloa crus-galli; Echinochloa crus-galli, post-emergence, 432 h, POST, ECHCG, I-3 solo 2 gai/ha, 18 DAT): 0%
- inhibition at 2 g/ha (Echinochloa crus-galli; Echinochloa crus-galli, post-emergence, 480 h, ECHCG POST, 20 DAT, use rate 2 gai/ha, read-out: % activity): 10%
- inhibition at 8 g/ha (Echinochloa crus-galli; Echinochloa crus-galli, post-emergence, 480 h, ECHCG POST, 20 DAT, use rate 8 gai/ha, read-out: % activity): 55%
- pest or weed control at 2 g/ha (Echinochloa crus-galli; Echinochloa crus-galli, post-emergence, 480 h, POST, 2 gai/ha, 20 DAT): 10%
- inhibition at 2 g/ha (Echinochloa crus-galli; Echinochloa crus-galli, post-emergence, 480 h, POST, ECHCG, use rate 2 gai/ha, 20 DAT, read-out: solo application % activity): 0%
- inhibition at 4 g/ha (Echinochloa crus-galli; Echinochloa crus-galli, post-emergence, 480 h, POST, ECHCG, use rate 4 gai/ha, 20 DAT): 35%
- inhibition at 8 g/ha (Echinochloa crus-galli; Echinochloa crus-galli, post-emergence, 480 h, POST, ECHCG, use rate 8 gai/ha, 20 DAT, read-out: % activity): 50%
- inhibition at 8 g/ha (Echinochloa crus-galli; Echinochloa crus-galli, post-emergence, 480 h, POST, ECHCG, use rate 8 gai/ha, 20 DAT, read-out: solo application % activity): 10%
- inhibition at 8 g/ha (Echinochloa crus-galli; Echinochloa crus-galli, post-emergence, ECHCG POST, use rate 8 gai/ha, read-out: % activity): 35%
- inhibition at 2 g/ha (Echinochloa crus-galli; Echinochloa crus-galli, post-emergence, POST, ECHCG, use rate 2 gai/ha, read-out: % activity): 30%
